Patent US11773076B2, “Crystalline forms of a somatostatin modulator” (Crinetics Pharmaceuticals, Inc., priority 2021, dated 2023)
Entries after “also recorded” stand apart in the source; their conditions may differ. One block for each compound: values may come before it.

Columns and labels:
SSTR5 = SSTR5 (Homo sapiens, UniProt P35346); assay: SSTR5 agonist potency; format: cell-based
SSTR2 = SSTR2 (Homo sapiens, UniProt P30874); assay: Selectivity for SSTR5 over SSTR2; format: cell-based
[1] = Thermodynamic stability: one-week slurry stability of crystalline Pattern A (XRPD); format: physicochemical
Procedure: One-week slurry stability studies were performed on crystalline Pattern A in five solvents and solvent systems at room temperature (20-24° C.) and at 10° C. About 25 mg of Compound 1 was weighed into 2 mL vials and the solvent was added to each vial at room temperature with stirring. The solvents and solvent systems used in the experiments were: IPA:water (1:1 vol), THF:heptane (1:2 vol), ACN:heptane (1:2 vol), MIBK:heptane (1:2 vol), and IPAc.
For the IPA:water (1:1 vol) samples, 10 vol. of IPA:water (1:1 vol) was added, whereas 7 vol. were initially added for the other solvent systems. One set of vials was left to stir at room temperature and the other set was transferred to a cold stir plate at 10° C. After 5 days, samples that remained in solutions were seeded with Pattern A (0.5-1 mg) and left to stir for one week.

[2] = Stability of solid state forms on humidity exposure (static storage, XRPD re-analysis); format: physicochemical; details: 40° C./75% RH for 7 days
Procedure: Samples were assessed for stability under static storage conditions of 40° C./75% RH for 7 days. The samples were then re-analyzed by XRPD.

[3] = Thermal stability of crystalline Pattern A (DSC cycling, then XRPD); format: physicochemical
Procedure: Two samples of Crystalline Pattern A were prepared and cycled in the DSC and then analyzed by XRPD.
The first sample of Pattern A (9.4 mg) was heated from 30° C. to 150° C. and then cooled back to 30° C.
The second sample of Pattern A (14.4 mg) was heated from 30° C. to 118° C. and then cooled back to 30° C. The sample recovered after the DSC experiment appeared as a light-amber pellet that was easily pressed into a powder on the XRPD plate.

[4] = Dynamic Vapor Sorption (DVS); format: physicochemical
Procedure: Dynamic Vapor Sorption (DVS) was performed using a DVS Intrinsic 1. The sample (10-15 mg) was loaded into a sample pan, suspended from a microbalance and exposed to a humidified stream of nitrogen gas. The sample was held for a minimum of 5 min at each level and only progressed to the next humidity level if there was <0.002% change in weight between measurements (interval: 60 seconds) or 240 min had elapsed. The following program was used: • (1) Equilibration at 50% RH • (2) 50% to 2% (50%, 40%, 30%, 20%, 10% and 2%) • (3) 2% to 95% (2%, 10%, 20%, 30%, 40%, 50%, 60%, 70%, 80%, 90%, 95%) • (4) 95% to 2% (95%, 80%, 70%, 60%, 50%, 40%, 30%, 20%, 10%, 2%) • (5) 2% to 50% (2%, 10%, 20%, 30%, 40%, 50%)

[5] = Dry and solvent drop milling, XRPD after milling; format: physicochemical
Procedure: Dry and solvent drop milling was done using a small Wig-L-Bug ball mill with ¼″ stainless steel ball as milling media. About 25 mg of crystalline Pattern A of Compound 1 was weighed into a milling capsule and one volume of solvent (solvent drop) was added. The milling was carried out at 3,800 rpm in three steps of 30 s each. The solids were recovered after milling and analyzed by XRPD.

[6] = Stability of crystalline patterns on drying (XRPD); format: physicochemical; details: for XRPD after drying on the benchtop: 2 days
Procedure: Samples of amorphous Compound 1 (either 30 mg/mL or 60 mg/mL) were dissolved in DCM and were allowed to evaporate either at room temperature or 45° C. After stirring for about 40 min, the resulting slurries were filtered and analyzed by XRPD. Pattern B was obtained for the wet cakes of recovered solids. Pattern B changed to C after drying under static vacuum at 50° C. overnight.
In a separate experiment, about 71 mg of amorphous Compound 1 was weighed into a 4 mL vial and 10 vol. (710 μL) of DCM was added at room temperature. After stirring for 5 min, a thin slurry formed. XRPD analysis of a sample taken from the slurry after 1 h confirmed Pattern B. The vial was then transferred to a fridge at 5° C. for ˜3 h and then to a freezer at −20° C. overnight. Small amount of solid settled to the bottom of the vial after cooling at −20° C., the yield was very low, about 6% w/w. XRPD confirmed Pattern B. Pattern B was left to dry on the benchtop at room temperature for 2 days. XRPD analysis on the sample after 2 days confirmed that Pattern B was stable. Thermal analysis on a small sample (0.7 mg) of Pattern B was performed by DSC.
A sample of 48.9 mg of amorphous Compound 1 and 3 vol. (˜150 μL) of MIBK:heptane was prepared at 45° C. A small amount of gummy solid formed after addition of the solvent system. The vial was vortexed and sonicated few times to break the gum and a thin slurry was obtained after 5 min of stirring. The sample was left to stir at 45° C. for about 5 h and then transferred to a stir plate at room temperature. After stirring overnight at room temperature, the sample was filtered and the solid was collected for XRPD analysis. The yield was low, ˜7% w/w.
Thermal analysis on a small sample of Pattern D was performed by DSC.

Sequence of SSTR5 (P35346 whole entry): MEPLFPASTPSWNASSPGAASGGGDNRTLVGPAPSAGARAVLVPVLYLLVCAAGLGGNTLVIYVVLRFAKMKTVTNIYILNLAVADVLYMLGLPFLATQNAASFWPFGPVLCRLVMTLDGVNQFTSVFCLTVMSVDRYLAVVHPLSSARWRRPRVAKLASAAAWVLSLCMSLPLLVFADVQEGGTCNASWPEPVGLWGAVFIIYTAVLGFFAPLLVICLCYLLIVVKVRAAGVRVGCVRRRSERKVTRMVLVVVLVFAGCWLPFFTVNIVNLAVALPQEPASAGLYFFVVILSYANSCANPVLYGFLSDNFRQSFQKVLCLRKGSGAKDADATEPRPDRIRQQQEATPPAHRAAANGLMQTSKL
Sequence of SSTR2 (P30874 whole entry): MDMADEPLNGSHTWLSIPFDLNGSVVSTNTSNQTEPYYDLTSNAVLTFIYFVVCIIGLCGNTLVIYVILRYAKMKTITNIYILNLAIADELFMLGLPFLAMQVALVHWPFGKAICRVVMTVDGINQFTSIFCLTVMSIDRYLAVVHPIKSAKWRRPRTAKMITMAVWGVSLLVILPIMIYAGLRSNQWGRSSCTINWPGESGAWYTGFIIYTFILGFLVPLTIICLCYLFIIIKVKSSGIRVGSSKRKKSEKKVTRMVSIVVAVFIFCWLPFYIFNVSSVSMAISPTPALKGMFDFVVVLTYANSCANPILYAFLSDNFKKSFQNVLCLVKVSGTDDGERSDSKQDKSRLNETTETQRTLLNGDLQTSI

- EC50 (SSTR5): < 1 nM
- selectivity for SSTR5 over SSTR2 (SSTR2): > 500 fold
SMILES: C[C@H](NC(=O)c1cnc(C#N)c(-c2cc(F)cc(F)c2)c1N1CC[C@H](N)C1)C(F)(F)F [Compound 1, 4-[(3S)-3-aminopyrrolidin-1-yl]-6-cyano-5-(3,5-difluorophenyl)-N-[(2S)-1,1,1-trifluoropropan-2-yl]pyridine-3-carboxamide]

- XRPD pattern after one-week slurry ([1]; MIBK:heptane (1:2 vol) at 10° C.): Pattern B
- XRPD pattern after one-week slurry ([1]; remaining six analysable samples: IPA:water (1:1), THF:heptane (1:2), IPAc, room temperature and 10° C.): Pattern A
- XRPD after static storage [2]: no change in the XRPD
- XRPD after DSC thermal cycling ([3]; heated from 30° C. to 118° C. and cooled back to 30° C.): stable after the DSC treatment
- XRPD after DSC thermal cycling ([3]; heated from 30° C. to 150° C. and cooled back to 30° C.): amorphous pattern
- total mass change between 2 and 95% RH ([4]; DVS, 2 to 95% RH): 0.7%
- mass gain from 20 to 75% RH ([4]; DVS, 20 to 75% RH): 0.37%
- mass loss from 50 to 2% RH ([4]; DVS, 50 to 2% RH): 0.2%
- XRPD pattern after DVS analysis ([4]; sample measured by DVS, 2-95% RH): unchanged after DVS analysis
- crystallinity (XRPD) after solvent milling ([5]; solvent drop milling in IPAc, water, and MIBK): remained stable
SMILES: C[C@H](NC(=O)c1cnc(C#N)c(-c2cc(F)cc(F)c2)c1N1CC[C@H](N)C1)C(F)(F)F [Pattern A, 4-[(3S)-3-aminopyrrolidin-1-yl]-6-cyano-5-(3,5-difluorophenyl)-N-[(2S)-1,1,1-trifluoropropan-2-yl]pyridine-3-carboxamide]
- XRPD pattern after one-week slurry ([1]; MIBK:heptane (1:2 vol) at room temperature): Pattern A+trace of a new pattern, Pattern D
- crystallinity (XRPD) after dry milling ([5]; dry milling, 3,800 rpm, three steps of 30 s): lost after dry milling resulting in amorphous material

- XRPD after drying on the benchtop ([6]; room temperature): stable
SMILES: C[C@H](NC(=O)c1cnc(C#N)c(-c2cc(F)cc(F)c2)c1N1CC[C@H](N)C1)C(F)(F)F [Pattern B, 4-[(3S)-3-aminopyrrolidin-1-yl]-6-cyano-5-(3,5-difluorophenyl)-N-[(2S)-1,1,1-trifluoropropan-2-yl]pyridine-3-carboxamide]
- XRPD after drying under vacuum at 50° C. ([6]; vacuum, 50° C.): changed to C; also recorded: converted to Pattern C

- XRPD after drying under active vacuum at room temperature ([6]; overnight, active vacuum, room temperature): converted to C
- XRPD after drying on the benchtop ([6]; room temperature): remained stable
SMILES: C[C@H](NC(=O)c1cnc(C#N)c(-c2cc(F)cc(F)c2)c1N1CC[C@H](N)C1)C(F)(F)F [Pattern D, 4-[(3S)-3-aminopyrrolidin-1-yl]-6-cyano-5-(3,5-difluorophenyl)-N-[(2S)-1,1,1-trifluoropropan-2-yl]pyridine-3-carboxamide]
